Experimental data as given in patent publication US20230256190A1, “Methods Of Administering High Concentrations Of Nitric Oxide” (Mallinckrodt Hospital Products IP Unlimited Company, priority 2012, published 2023).

Experiments:
[1] = test system: healthy subjects; test: Local nasal tolerability scoring (0 to 3) during 72 hours of pulsed nitric oxide inhalation; type: in vivo, human; details: for Local tolerability Mean Score / Percent of Subjects Experiencing Nasal Irritation: 72 hours
Protocol: (§1) A multiple-dose, single-blind, placebo-controlled, tolerance study of pulsed volumes of nitric oxide was completed using healthy subjects. An objective of the study was to determine safe dosing limits of inhaled nitric oxide delivered via a pulse system at cylinder concentrations of 100, 400, and 800 ppm and gas volumes ranging from 4 to 60 mL/breath at dose rates ranging from 17 to 166 μg of NO/sec. Yet another objective of the study was to determine the safety profile, including adverse events (AEs), vital signs and laboratory parameters.
Six subjects were assigned to each cohort (5 NO, 1 placebo) in a randomized, single-blind fashion. […] A total of 22 cohorts were evaluated, with NO doses ranging from 125 to 1500 nmol/breath at delivery concentrations of 100, 400, or 800 ppm and varying volumes (4 to 60 mL per breath) in a matrix design, as shown in Table 1. Vital signs and safety laboratory were evaluated. […]
(§2) Primary safety evaluations included: (1) qualitative assessment of local nasal tolerability via a scoring system (0 to 3); and (2) formation of MetHb (compared with a standard of 7%) following varying concentrations and volumes of pulsed doses of NO. Safety evaluations included assessments of adverse events (AEs), medical history, physical examinations, vital signs, electrocardiograms (ECGs) and laboratory assessments at baseline and during the study period.
(§3) All evaluations were performed on the ‘Safety’ population, defined as all subjects who were enrolled and treated with any amount of study drug. Descriptive statistics included mean, standard deviation (SD), range, median, CV %, geometric mean and geometric CV %.
(§4) For analysis purposes, cohorts that received the same dose of NO but different cylinder concentrations and volumes were pooled, thereby creating 15 dose levels (n=14 active NO and 1 placebo, from all dose groups combined). These 15 dose levels were grouped into 4 dose analysis groups: placebo, low-dose NO (1-500 nmol/breath), mid-dose NO (501-1000 nmol/breath), and high-dose NO (1001-1500 nmol/breath).
For analysis purposes, cohorts that received the same dose rate of administration of NO but different cylinder concentrations, doses and volumes were pooled, thereby creating 6 dose rate of administration levels (n=5 active NO and 1 placebo, from all rate of administration groups combined). The dose rate of administration of NO was calculated as the product of the flow rate of NO and the cylinder NO concentration.

[2] = test system: healthy subjects; test: Multiple-dose, single-blind, placebo-controlled tolerance study of pulsed nitric oxide: adverse events; type: in vivo, human; details: for Total % with any AE: 72 h pulsed inhalation
Protocol: as §1
Six subjects were assigned to each cohort (5 NO, 1 placebo) in a randomized, single-blind fashion. All subjects received 72 hours of continuous inhalation. A total of 22 cohorts were evaluated, with NO doses ranging from 125 to 1500 nmol/breath at delivery concentrations of 100, 400, or 800 ppm and varying volumes (4 to 60 mL per breath) in a matrix design, as shown in Table 1. Vital signs and safety laboratory were evaluated. Blood samples for determination of methemoglobin (MetHb) in venous blood, were collected for 72 hours at selected time points.
as §2, §3, §4

[3] = NO 501-1000 nmol/breath (N = 45)
[4] = NO 1001-1500 nmol/breath (N = 15)

[N]=O [NO, Nitric oxide]
Local tolerability Mean Score ([1]; cylinder concentration 100 ppm): 0.10
Local tolerability Mean Score ([1]; cylinder concentration 400 ppm): 0.09
Local tolerability Mean Score ([1]; cylinder concentration 800 ppm): 0.33
Local tolerability Mean Score ([1]; dose group 125 nmol/breath, score 0 to 3): 0.07
Local tolerability Mean Score ([1]; dose group 250 nmol/breath, score 0 to 3): 0.00
Local tolerability Mean Score ([1]; dose group 340 nmol/breath, score 0 to 3): 0.10
Local tolerability Mean Score ([1]; dose group 420 nmol/breath, score 0 to 3): 0.00
Local tolerability Mean Score ([1]; dose group 500 nmol/breath, score 0 to 3): 0.10
Local tolerability Mean Score ([1]; dose group 585 nmol/breath, score 0 to 3): 0.40
Local tolerability Mean Score ([1]; dose group 670 nmol/breath, score 0 to 3): 0.00
Local tolerability Mean Score ([1]; dose group 750 nmol/breath, score 0 to 3): 0.00
Local tolerability Mean Score ([1]; dose group 840 nmol/breath, score 0 to 3): 0.60
Local tolerability Mean Score ([1]; dose group 920 nmol/breath, score 0 to 3): 0.00
Local tolerability Mean Score ([1]; dose group 1000 nmol/breath, score 0 to 3): 0.33
Local tolerability Mean Score ([1]; dose group 1160 nmol/breath, score 0 to 3): 0.40
Local tolerability Mean Score ([1]; dose group 1340 nmol/breath, score 0 to 3): 0.20
Local tolerability Mean Score ([1]; dose group 1500 nmol/breath, score 0 to 3): 0.75
Percent of Subjects Experiencing Nasal Irritation ([1]; dosing rate 17 μg NO/sec): 0%
Percent of Subjects Experiencing Nasal Irritation ([1]; dosing rate 21 μg NO/sec): 10.0%
Percent of Subjects Experiencing Nasal Irritation ([1]; dosing rate 33 μg NO/sec): 10%
Percent of Subjects Experiencing Nasal Irritation ([1]; dosing rate 83 μg NO/sec): 10%
Percent of Subjects Experiencing Nasal Irritation ([1]; dosing rate 167 μg NO/sec): 36.4%
Local tolerability Mean Score ([1]; pulse volume 4 mL/pulse): 0.00
Local tolerability Mean Score ([1]; pulse volume 8 mL/pulse): 0.00
Local tolerability Mean Score ([1]; pulse volume 10 mL/pulse): 0.20
Local tolerability Mean Score ([1]; pulse volume 15 mL/pulse): 0.10
Local tolerability Mean Score ([1]; pulse volume 20 mL/pulse): 0.00
Local tolerability Mean Score ([1]; pulse volume 25 mL/pulse): 0.60
Local tolerability Mean Score ([1]; pulse volume 30 mL/pulse): 0.07
Local tolerability Mean Score ([1]; pulse volume 35 mL/pulse): 0.40
Local tolerability Mean Score ([1]; pulse volume 40 mL/pulse): 0.10
Local tolerability Mean Score ([1]; pulse volume 45 mL/pulse): 0.33
Local tolerability Mean Score ([1]; pulse volume 50 mL/pulse): 0.00
Local tolerability Mean Score ([1]; pulse volume 55 mL/pulse): 0.00
Local tolerability Mean Score ([1]; pulse volume 60 mL/pulse): 0.30
Nasal irritation ([1]; doses less than 420 nmol/breath (about 0.4 mg/kg/hr), 48 hours of continuous administration): no evidence of nasal irritation
Nasal tolerability compared with placebo ([1]; doses less than 420 nmol/breath, at 72 hours): no different than for placebo
Subjects with nasal redness ([1]; doses less than 420 nmol/breath, at 72 hours, placebo 3/18): 2/18
Incidence of nasal irritation ([1]; dosing rate of 166 μg g/sec, including a case of nasal ulceration): higher incidence of nasal irritation
Nasal tolerability compared with placebo ([1]; dosing rates up to 166 μg/sec, 72 hours pulsed dosing): not different from placebo
Back pain (% of subjects) ([2]; NO 1-500 nmol/breath (N = 50)): 6.0%
Headache (% of subjects) ([2]; NO 1-500 nmol/breath (N = 50)): 8.0%
Nausea (% of subjects) ([2]; NO 1-500 nmol/breath (N = 50)): 2.0%
Total % with any AE ([2]; NO 1-500 nmol/breath (N = 50)): 28.0%
Back pain (% of subjects) [2, 3]: 4.4%
Headache (% of subjects) [2, 3]: 4.4%
Nausea (% of subjects) [2, 3]: 4.4%
Total % with any AE [2, 3]: 33.3%
Back pain (% of subjects) [2, 4]: 0.0%
Headache (% of subjects) [2, 4]: 20.0%
Nausea (% of subjects) [2, 4]: 6.7%
Total % with any AE [2, 4]: 53.3%
Overall incidence of AEs ([2]; across dose, cylinder concentration and volume cohorts): only dose related
Subjects withdrawn due to chest discomfort, decreased O2 saturation, and dyspnea ([2]; high-dose NO group (1001-1500 nmol/breath), one subject): 6.7%
